Data on 62 compounds can be found in patent publication US7101878B1 (Agouron Pharmaceuticals, Inc., priority 1998, dated 2006).

For the first experiment, the target named is T1, mouse GnRH receptor (Mus musculus, UniProt Q01776).
T1 construct: expressed in transfected cells; host or cells: 293 cells
T1 sequence (Q01776 1-327): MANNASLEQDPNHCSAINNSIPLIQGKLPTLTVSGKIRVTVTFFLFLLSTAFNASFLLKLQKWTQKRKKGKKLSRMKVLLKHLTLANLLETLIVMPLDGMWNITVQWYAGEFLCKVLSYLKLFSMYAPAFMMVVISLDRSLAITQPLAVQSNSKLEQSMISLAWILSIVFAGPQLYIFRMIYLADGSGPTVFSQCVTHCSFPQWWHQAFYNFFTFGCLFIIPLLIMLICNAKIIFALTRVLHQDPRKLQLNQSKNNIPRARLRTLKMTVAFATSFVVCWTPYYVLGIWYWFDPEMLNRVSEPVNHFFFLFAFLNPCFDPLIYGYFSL
Briefly: Radioligand binding, 125I-GnRH-A, 293 cells expressing mouse GnRH receptors. The conditions noted are these: 10 uM. The gist of the method: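 Bound label captured on 0.1% polyethyleneimine-treated GF/C filters, washed three times with PBS, counted. IC50 derived; identical set-up for every species.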
For the compound `Cc1cc2c(cc1Cc1ccc(C(=O)NC(CO)C(C)C)o1)C(C)(C)CCC2(C)C` (centres unmarked) [drawing 1479], the “% Inhib. @ 10 uM mGnRH” value was found to be 103%.

Staying with this experiment, now noted: 10 uM; read-out: % Inhib. @ 10 uM mGnRH.
For `Cc1cc2c(cc1Cc1ccc(C(=O)N(Cc3cccnc3)CC3CC=CCC3)o1)C(C)(C)CCC2(C)C` (centres unmarked) [drawing 1318], the inhibition at 10 µM was 94%.
The same measure, in the same setting: to `Cc1cc2c(cc1Cc1ccc(C(=O)NC(CO)CC(C)C)o1)C(C)(C)CCC2(C)C` (centres unmarked) [drawing 1320] belongs 98%; to `Cc1cc2c(cc1Cc1ccc(C(=O)NCCc3ccc(Br)cc3)o1)C(C)(C)CCC2(C)C` [drawing 1371], 47%.
Same read-out and setting: to `Cc1cc2c(cc1Cc1ccc(C(=O)NCc3ccccc3-c3ccccc3)o1)C(C)(C)CCC2(C)C` [drawing 1372] belongs 74%.
The same measure, in the same setting: to `Cc1cc2c(cc1Cc1ccc(C(=O)NC3CCc4ccccc43)o1)C(C)(C)CCC2(C)C` (centres unmarked) [drawing 1375] belongs 57%; to `COC(CCCNC(=O)c1ccc(Cc2cc3c(cc2C)C(C)(C)CCC3(C)C)o1)OC` [drawing 1383], 101%; to `Cc1cc2c(cc1Cc1ccc(C(=O)NCCCO)o1)C(C)(C)CCC2(C)C` [drawing 1417], 96%.
In the case of `Cc1cc2c(cc1Cc1ccc(C(=O)N(C)C3CCN(C)CC3)o1)C(C)(C)CCC2(C)C` [drawing 1420], the inhibition at 10 µM was 89%.
Still for that read-out and setting: to `COc1ccccc1N1CCN(C(=O)c2ccc(Cc3cc4c(cc3C)C(C)(C)CCC4(C)C)o2)CC1` [drawing 1421] belongs 73%; to `Cc1cc2c(cc1Cc1ccc(C(=O)N3CCc4ccccc4C3)o1)C(C)(C)CCC2(C)C` [drawing 1422], 70%; to `Cc1cc2c(cc1Cc1ccc(C(=O)N3CCC(O)(c4ccc(Cl)cc4)CC3)o1)C(C)(C)CCC2(C)C` [drawing 1423], 43%.
For `CC(=O)N1CCN(C(=O)c2ccc(Cc3cc4c(cc3C)C(C)(C)CCC4(C)C)o2)CC1` [drawing 1424], the inhibition at 10 µM was 71%.
The same measure, in the same setting: for `Cc1cc2c(cc1Cc1ccc(C(=O)N3CCC(Cc4ccccc4)CC3)o1)C(C)(C)CCC2(C)C` [drawing 1425] the value was 48%.
The same measure, in the same setting: to `Cc1cc2c(cc1Cc1ccc(C(=O)N3CC(C)OC(C)C3)o1)C(C)(C)CCC2(C)C` (centres unmarked) [drawing 1426] belongs 84%; to `Cc1cc2c(cc1Cc1ccc(C(=O)N3CCC(CCCC4CCN(CCO)CC4)CC3)o1)C(C)(C)CCC2(C)C` [drawing 1427], 104%; to `CCN(CC)CCN(C)C(=O)c1ccc(Cc2cc3c(cc2C)C(C)(C)CCC3(C)C)o1` [drawing 1428], 68%.
Still for that read-out and setting: to `Cc1cc2c(cc1Cc1ccc(C(=O)N3CCN(CCO)CC3)o1)C(C)(C)CCC2(C)C` [drawing 1429] belongs 69%.
Regarding `Cc1cc2c(cc1Cc1ccc(C(=O)N3CC=CCC3)o1)C(C)(C)CCC2(C)C` [drawing 1430], the inhibition at 10 µM was found to be 69%.
Same read-out and setting: to `Cc1cc2c(cc1Cc1ccc(C(=O)N3CCN(CC(=O)N4CCCC4)CC3)o1)C(C)(C)CCC2(C)C` [drawing 1432] belongs 79%; to `Cc1cc2c(cc1Cc1ccc(C(=O)N3CCCCCCC3)o1)C(C)(C)CCC2(C)C` [drawing 1433], 88%; to `COc1ccc(C(NC(=O)c2ccc(Cc3cc4c(cc3C)C(C)(C)CCC4(C)C)o2)C2CC2)cc1` (centres unmarked) [drawing 1435], 83%.
Consider `Cc1cc2c(cc1Cc1ccc(C(=O)N3CCCCC3C(=O)NC(c3ccccc3)c3ccccc3)o1)C(C)(C)CCC2(C)C` (centres unmarked) [drawing 1436], for which the inhibition at 10 µM amounted to 43%.
The same measure, in the same setting: for `Cc1cc2c(cc1Cc1ccc(C(=O)NCCCCCO)o1)C(C)(C)CCC2(C)C` [drawing 1437] the value was 99%.
Still for that read-out and setting: for `Cc1cc2c(cc1Cc1ccc(C(=O)NCC(C)(C)CO)o1)C(C)(C)CCC2(C)C` [drawing 1438] the value was 84%; for `C=CCN(CC=C)C(=O)c1ccc(Cc2cc3c(cc2C)C(C)(C)CCC3(C)C)o1` [drawing 1440], 83%; for `CC(=O)N(C)C1CCN(C(=O)c2ccc(Cc3cc4c(cc3C)C(C)(C)CCC4(C)C)o2)C1` (centres unmarked) [drawing 1441], 74%.
The same measure, in the same setting: for `Cc1cc2c(cc1Cc1ccc(C(=O)NCC(C)O)o1)C(C)(C)CCC2(C)C` (centres unmarked) [drawing 1443] the value was 90%; for `Cc1cc2c(cc1Cc1ccc(C(=O)NC(C)(CO)CO)o1)C(C)(C)CCC2(C)C` [drawing 1444], 55%; for `Cc1cc2c(cc1Cc1ccc(C(=O)NCC3(O)CCCCC3)o1)C(C)(C)CCC2(C)C` [drawing 1445], 65%.
As for `Cc1cc2c(cc1Cc1ccc(C(=O)N3CC(C)CC(C)C3)o1)C(C)(C)CCC2(C)C` (centres unmarked) [drawing 1446], the inhibition at 10 µM stood at 90%.
The same measure, in the same setting: for `Cc1cc2c(cc1Cc1ccc(C(=O)NC(C)CCCC(C)C)o1)C(C)(C)CCC2(C)C` (centres unmarked) [drawing 1447] the value was 72%; for `Cc1cc2c(cc1Cc1ccc(C(=O)NCCC3=CCCCC3)o1)C(C)(C)CCC2(C)C` [drawing 1448], 84%.
Still for that read-out and setting: to `Cc1cc2c(cc1Cc1ccc(C(=O)NCCNc3cccc4ccccc34)o1)C(C)(C)CCC2(C)C` [drawing 1449] belongs 56%; to `Cc1cc2c(cc1Cc1ccc(C(=O)NC(C)(C)C)o1)C(C)(C)CCC2(C)C` [drawing 1450], 72%; to `CCN(CCO)C(=O)c1ccc(Cc2cc3c(cc2C)C(C)(C)CCC3(C)C)o1` [drawing 1451], 81%.
On the same count and under the same terms, to `Cc1cc2c(cc1Cc1ccc(C(=O)NCCc3ccccc3)o1)C(C)(C)CCC2(C)C` [drawing 1452] belongs 73%; to `COCC(C)NC(=O)c1ccc(Cc2cc3c(cc2C)C(C)(C)CCC3(C)C)o1` (centres unmarked) [drawing 1454], 91%; to `Cc1ccc(N2CCN(C(=O)c3ccc(Cc4cc5c(cc4C)C(C)(C)CCC5(C)C)o3)CC2)c(C)c1` [drawing 1455], 52%.
On to `Cc1cc2c(cc1Cc1ccc(C(=O)NC3CCC3)o1)C(C)(C)CCC2(C)C` [drawing 1456], for which the inhibition at 10 µM amounted to 60%.
Still for that read-out and setting: to `Cc1cc2c(cc1Cc1ccc(C(=O)N3CCC(N4CCCC4)CC3)o1)C(C)(C)CCC2(C)C` [drawing 1458] belongs 96%; to `Cc1cc2c(cc1Cc1ccc(C(=O)N(CCc3ccccn3)Cc3ccccc3)o1)C(C)(C)CCC2(C)C` [drawing 1459], 76%.
Same read-out and setting: to `Cc1cc2c(cc1Cc1ccc(C(=O)N(CCN3CCCCC3)Cc3ccccc3)o1)C(C)(C)CCC2(C)C` [drawing 1460] belongs 104%; to `Cc1cc2c(cc1Cc1ccc(C(=O)N(CCN3CCOCC3)Cc3ccccc3)o1)C(C)(C)CCC2(C)C` [drawing 1461], 91%; to `Cc1cc2c(cc1Cc1ccc(C(=O)N(CCN3CCCC3)Cc3ccccc3)o1)C(C)(C)CCC2(C)C` [drawing 1462], 100%.
On the same count and under the same terms, to `Cc1cc2c(cc1Cc1ccc(C(=O)NC(C)C3CCCCC3)o1)C(C)(C)CCC2(C)C` (centres unmarked) [drawing 1463] belongs 72%; to `Cc1cc2c(cc1Cc1ccc(C(=O)NC3(CO)CCCC3)o1)C(C)(C)CCC2(C)C` [drawing 1464], 98%.
On to `Cc1cc2c(cc1Cc1ccc(C(=O)NC(CO)CC3CCCCC3)o1)C(C)(C)CCC2(C)C` (centres unmarked) [drawing 1465], for which the inhibition at 10 µM worked out at 76%.
Still for that read-out and setting: for `Cc1cc2c(cc1Cc1ccc(C(=O)NC[C@@H]3CCCC[C@H]3O)o1)C(C)(C)CCC2(C)C` [drawing 1466] the value was 97%; for `Cc1cc2c(cc1Cc1ccc(C(=O)N3CCC(C(=O)c4ccc(F)cc4)CC3)o1)C(C)(C)CCC2(C)C` [drawing 1467], 63%.
On the same count and under the same terms, for `Cc1cc2c(cc1Cc1ccc(C(=O)N3CCN(c4cccc(C)c4C)CC3)o1)C(C)(C)CCC2(C)C` [drawing 1468] the value was 58%; for `Cc1cc2c(cc1Cc1ccc(C(=O)NCC(O)c3ccccc3)o1)C(C)(C)CCC2(C)C` (centres unmarked) [drawing 1470], 101%.
Consider `Cc1cc2c(cc1Cc1ccc(C(=O)N(C)CCC=C3c4ccccc4CCc4ccccc43)o1)C(C)(C)CCC2(C)C` [drawing 1472], for which the inhibition at 10 µM stood at 58%.
The same measure, in the same setting: for `Cc1cc2c(cc1Cc1ccc(C(=O)N(CCC#N)Cc3cccnc3)o1)C(C)(C)CCC2(C)C` [drawing 1473] the value was 91%; for `Cc1cc2c(cc1Cc1ccc(C(=O)N(Cc3ccc(C(C)C)cc3)Cc3cccnc3)o1)C(C)(C)CCC2(C)C` [drawing 1474], 76%; for `Cc1cc2c(cc1Cc1ccc(C(=O)N(Cc3cccnc3)Cc3cccc(C(F)(F)F)c3)o1)C(C)(C)CCC2(C)C` [drawing 1475], 80%.
On to `Cc1cc2c(cc1Cc1ccc(C(=O)NC(CO)C(C)C)o1)C(C)(C)CCC2(C)C` (centres unmarked) [drawing 1478], for which the inhibition at 10 µM was found to be 87%.
Same read-out and setting: to `CCCN(Cc1ccc([N+](=O)[O-])cc1)C(=O)c1ccc(Cc2cc3c(cc2C)C(C)(C)CCC3(C)C)o1` [drawing 1480] belongs 66%; to `CCC(CO)NC(=O)c1ccc(Cc2cc3c(cc2C)C(C)(C)CCC3(C)C)o1` (centres unmarked) [drawing 1481], 89%.
For the compound `Cc1cc2c(cc1Cc1ccc(C(=O)NCc3ccc(F)cc3)o1)C(C)(C)CCC2(C)C` [drawing 1482], the inhibition at 10 µM was 97%.
Still for that read-out and setting: for `Cc1cc2c(cc1Cc1ccc(C(=O)NCCn3c([N+](=O)[O-])cnc3C)o1)C(C)(C)CCC2(C)C` [drawing 1486] the value was 42%; for `Cc1cc2c(cc1Cc1ccc(C(=O)NCCCOC(C)C)o1)C(C)(C)CCC2(C)C` [drawing 1487], 93%.
